Source: patent publication US4652561A, “Naphtho[1,2-b]-1,4-thiazepinones” (Hoffmann-La Roche Inc., priority 1986, dated 1987)

Key:
Guinea Pig Ileum = experiment: Guinea pig ileum assay - tonic contraction (calcium channel blocking activity); conditions: inhibition of K^+ (80 mM) induced tonic contraction, 37° C.
Experimental: GUINEA PIG ILEUM ASSAY--TONIC CONTRACTION
Male guinea-pigs weighing from 300-400 grams were stunned and bled. The abdomen was opened and 10-15 cm of terminal ileum was carefully removed and cleaned and placed in Tyrode's Solution of the following composition: NaCl (8 g/l), KCl (0.2 g/l), MgCl2 (0.2 g/l.). CaCl2 (0.2 g/l). NaH2 PO4 (0.05 g/l), NaHCO3 (1.0 g/l) and Glucose (1 g/l). The solution was maintained at 37° C. and gassed with 95%O2 and 5%CO2. Portions of the ileum were placed over a glass rod, a shallow incision was made the length of the mesenteric attachment just severing the outer-longitudinal muscle layer. The longitudinal muscle was separated from the underlying circular muscle by gentle dissection (Rang, H. P. Annals of N.Y. Academy of Science Vol. 144, page 756, (1964)). The tissue was fixed at one end to a tissue holder, the other end was connected by a thread to a force transducer and suspended in a muscle bath containing Tyrode's Solution maintained at 37° C. and gassed with 95%O2 and 5%CO2. An initial tension of 500 mg was applied and the tissue allowed to equilibrate for 60 minutes prior to the start of the study. During this period the tissue was washed every 16 minutes. Each preparation, at 16 minute intervals, was challenged with KCl sufficient to yield a bath K^+ concentration of 80 mMK for 2 minutes, then washed with fresh solution. The 16 minute interval between K^+ challenges was maintained throughout the study. Upon stabilization of the responses to the K^+ challenge the test compound (potential calcium entry antagonist) was introduced into the bath 2 minutes prior to and during the 2 minute exposure to K^+ after which the bath was cleared and washed with fresh solution. Logarithmically increasing doses (up to 10^-4 M) of the potential antagonist were administered as the study progressed.
The measure of compound's ability to inhibit the tonic contraction of muscle is a measure of its activity as a calcium channel blocking agent.

SH rat = experiment: Blood pressure lowering in the spontaneously hypertensive (SH) rat; format: in vivo; conditions: 50 mg/kg p.o.; for Duration: duration of SBP lowering
Experimental: BLOOD PRESSURE LOWERING IN THE SPONTANEOUSLY HYPERTENSIVE (SH) RAT
Six male SH rats were used for each test. Body weights were recorded. Six pre-drug control recordings of the systolic blood pressure (mmHg) were measured from the tails of the rats which were unanesthetized and restrained in holders. The rats were previously heated for 5-10 minutes at 32°-34° C. The systolic blood pressure was measured by an occlusion cuff.
The compounds were administered orally to the rats in a composition that included 5% compound and the remainder gum acacia. The blood pressure of the rats was measured over a period of hours following oral administration.
The measure of a compound's ability to decrease blood pressure, is a measure of its ability as an anti-hypertensive agent.

| Structure (SMILES) | IC50 (Guinea Pig Ileum) | Systolic Blood Pressure (SBP) in the SH rat, SBP (Δ mm Hg) (SH rat) | Duration (SH rat) |
| --- | --- | --- | --- |
| COc1ccc([C@@H]2Sc3c(ccc4ccccc34)N(CCN(C)C)C(=O)[C@H]2OC(C)=O)cc1 (racemic) [H, (±)-trans-3-(acetyloxy)-2,3-dihydro-2-(4-methoxyphenyl)-5-[2-(dimethylamino)ethyl]naphtho[1,2-b]-1,4-thiazepin-4(5H)-one] | 46000 nM |  |  |
| COc1ccc([C@@H]2Sc3c(ccc4ccccc34)N(CCN(C)C)C(=O)[C@@H]2O)cc1 (racemic) [C, (±)-cis-5-[2-(dimethylamino)ethyl]-2,3-dihydro-3-hydroxy-2-(4-methoxyphenyl)naphtho[1,2-b]-1,4-thiazepin-4(5H)-one] | 520 nM |  |  |
| COc1ccc([C@@H]2Sc3c(ccc4ccccc34)N(CCN(C)C)C(=O)[C@@H]2O)cc1 [E, (-)-cis-2,3-dihydro-3-hydroxy-2-(4-methoxyphenyl)-5-[2-(dimethylamino)ethyl]naphtho[1,2-b]-1,4-thiazepin-4(5H)-one] | 56000 nM |  |  |
| COc1ccc([C@@H]2Sc3c(ccc4ccccc34)N(CCN(C)C)C(=O)[C@@H]2O)cc1 [B, (+)-cis-5-[2-(dimethylamino)ethyl]-2,3-dihydro-3-hydroxy-2-(4-methoxyphenyl)naphtho[1,2-b]-1,4-thiazepin-4(5H)-one] | 1100 nM | -63 ± 9 mm Hg | 24 h |
| COc1ccc([C@@H]2Sc3c(ccc4ccccc34)N(CCN(C)C)C(=O)[C@@H]2OC(C)=O)cc1 [A, (+)-cis-3-(acetyloxy)-2,3-dihydro-2-(4-methoxyphenyl)-5-[2-(dimethylamino)ethyl]naphtho[1,2-b]-1,4-thiazepin-4(5H)-one] | 1300 nM | -67 ± 7 mm Hg | 19 h |
| COc1ccc([C@@H]2Sc3c(ccc4ccccc34)N(CCN(C)C)C(=O)[C@@H]2OC(C)=O)cc1 (racemic) [D, (±)-cis-3-(acetyloxy)-2,3-dihydro-2-(4-methoxyphenyl)-5-[2-(dimethylamino)ethyl]naphtho[1,2-b]-1,4-thiazepin-4(5H)-one] | 230 nM |  |  |
| COc1ccc([C@@H]2Sc3c(ccc4ccccc34)N(CCN(C)C)C(=O)[C@H]2O)cc1 (racemic) [G, (±)-trans-2,3-dihydro-3-hydroxy-2-(4-methoxyphenyl)-5-[2-(dimethylamino)ethyl]naphtho[1,2-b]-1,4-thiazepin-4(5H)-one] | 63000 nM |  |  |
